Measured values published in patent US9884041B2 (YONSEI […], INC., priority 2010, dated 2018).

Key:
UCP3 = assay: RT-PCR analysis of UCP3 gene expression in mouse visceral fat tissues; format: in vivo, mice; settings: mRNA by RT-PCR, normalized to GAPDH, to the similar level to the ND group
Source text: (§1) FIG. 7 represents the expression profiles of UCPs genes in the visceral fat tissues of mice. The left panel represents images of RT-PCR analysis results for UCP1 and UCP3, and the right panel represents relative expression levels of these genes. The data were normalized to GAPDH mRNA levels and expressed as relative values to those from ND mouse. The results are represented as mean±SEM (standard error) of values obtained from RNA sample of eight mice with three independent experiments. The characters above the bars indicate significant difference in dietary groups by one-way analysis of variance (ANOVA) test and Duncan's multiple range test (P<0.05).
(§2) After adding 1 mL of Trizol agent per 0.1 g of visceral fat tissues, the mixture was homogenized and centrifuged at 12,000×g for 10 min at 4° C. The supernatant was transferred to a new tube and 200 μl of chloroform was added to the tube, followed by vortexing. The same procedure was repeated twice and then the supernatant was transferred to a new tube, followed by addition of isopropanol and the supernatant at 1:1 ratio. […] The RNA sample concentration was measured at a wavelength of 260 nm and 280 nm using a UV/VIS spectrophotometer (Beckman coulter, DU730) and the integrity of RNA sample was verified by agarose gel electrophoresis. […]

C57BL/6J mice [1] = assay: Plasma lipid and glucose levels of mice fed test diets; format: in vivo; settings: HFD with 0.05% piperonal, 10 weeks
Experimental: (§3) The obesity-inducing control diet used in the test was high-fat diet (HFD: 40% fat calorie, 17 g lard+3% corn oil/100 g diet). […] The normal diet (ND) was prepared under AIN-76 rodent diet (American Institute of Nutrition, Report of the American Institute of Nutrition ad hoc committee on standards for nutritional studies. J. Nutr. 107: 1340-1348, 1977) (see Table 1). Piperonal was purchased from Sigma-Aldrich.
(§4) 5-week-old male C57BL/6J mice (Orient, Korea) were accustomed to the laboratory environment for 1 week while feeding solid feed. Then, they were randomly divided into normal diet, high-fat diet and test groups and bred for a total of 10 weeks. The diet was given between 10 and 11 a.m. every day together with water. Food intake was measured every day and body weight was measured once a week. In order to avoid transient body weight increase after feed intake, body weight was measured 2 hours after removing the feed. After fasting the test animal for at least 12 hours and anesthetizing with diethyl ether, blood, liver and visceral fat (epididymal fat, perirenal fat, mesenteric fat and retroperitoneal fat) were taken and weighed after washing with 0.1 M PBS (pH 7.4). Blood taken from the abdominal aorta was centrifuged at 1000×g for 15 minutes for the separation of plasma.
After 10 weeks of breeding, total cholesterol, HDL-cholesterol, triglyceride and glucose levels in the plasma and lipid levels in the liver tissue were measured as follows. Total cholesterol, HDL-cholesterol, triglyceride, free fatty acid and glucose levels in the plasma were measured twice for each using a commercially available kit (Bio Clinical System). LDL+VLDL cholesterol levels in the blood were calculated by subtracting HDL-cholesterol levels from the total cholesterol levels.

C57BL/6J mice [2] = assay: Liver weights, liver lipid levels and liver function indicators (ALT, AST) of mice fed test diets; format: in vivo; settings: HFD with 0.05% piperonal, 10 weeks
Experimental: as §3, §4
Lipids were extracted from the liver tissue according to Folch et al.'s method (Folch J et al., J Biol Chem. 226: 497-509 (1957)). After adding 1 mL of distilled water to 0.25 g of liver tissue, the liver tissue was homogenized using a Polytron homogenizer (IKA-Werke GmbH & Co., Ultra-Turrax, Staufen, Germany). After adding 5 mL of chloroform:methanol solution (2:1, v/v) to the homogenate and mixing well, the mixture was centrifuged at 1000×g for 10 minutes. After adding 2 mL of chloroform:methanol solution (2:1, v/v) again to the supernatant, the same procedure was repeated to completely separate the lipid components of the liver. After adding 3 mL of chloroform:methanol:0.05% CaCl2 (3:48:47, v/v/v) solution to the remaining pellets and mixing well for 1 minute, followed by centrifugation at 1000×g for 10 minutes, the resulting pellets were completely dried with nitrogen gas. The dried lipids were dissolved in 1 mL of methanol and then analyzed.
The same kit (Bio Clinical System) as that used for the plasma analysis was used to measure the triglyceride, cholesterol and free fatty acid levels of the liver tissue.
The activity of ALT (alanine aminotransferase) and AST (aspartate aminotransferase) used as liver function indicator were measured twice for each using a commercially available kit (Bio Clinical System, Korea).

C57BL/6J mice [3] = assay: Body weight, food intake and visceral fat-pad weights of mice fed test diets (HFD-induced obesity); format: in vivo; settings: HFD with 0.05% piperonal, 10 weeks
Experimental: as §3, §4
The food efficiency ratio was calculated by dividing the total body weight gain during the experimental period (g) by the total food intake (g) (FIGS. 1 and 2).

UCP1 = assay: RT-PCR analysis of UCP1 gene expression in mouse visceral fat tissues; format: in vivo, mice; settings: mRNA by RT-PCR, normalized to GAPDH, to the similar level to the ND group
Source text: as §1, §2

IL-6 = assay: RT-PCR analysis of IL-6 gene expression in mouse liver tissues; format: in vivo, mice; settings: mRNA by RT-PCR
Source text: (§5) FIG. 9 represents the expression profiles of genes relating to inflammation in mice liver tissues. The left panel represents images of RT-PCR analysis results for TNFα and IL-6, and the right panel represents relative expression levels of these genes. The data were normalized to GAPDH mRNA levels and expressed as relative values to those from ND mouse. The results are represented as mean±SEM (standard error) of values obtained from RNA sample of eight mice with three independent experiments. The characters above the bars indicate significant difference in dietary groups by one-way analysis of variance (ANOVA) test and Duncan's multiple range test (P<0.05).
as §2, with “liver” for “visceral fat”

human = human took 10 g of piperonal; cited from earlier work
PPARγ2 = assay: RT-PCR analysis of PPARγ2 gene expression in mouse liver tissues; format: in vivo, mice; settings: mRNA by RT-PCR, vs HFD, to levels similar for the ND
Source text: as §5, with “8” for “9”, “lipogenesis” for “inflammation”, “C/EBPα, PPARγ2” for “TNFα”, “aP2,” for “IL-6,”
as §2, with “liver” for “visceral fat”

patients = settings: sense of smell stimulated through nasal cannula during MRI for cancer diagnosis; cited from earlier work
[4] = system: cancinogenesis animal model; settings: in vivo; cited from earlier work
rats [5] = settings: feed containing 0.1% piperonal and 0.5% piperonal, 2 years; cited from earlier work
TNF-α = assay: RT-PCR analysis of TNF-α gene expression in mouse liver tissues; format: in vivo, mice; settings: mRNA by RT-PCR
Source text: as §5
as §2, with “liver” for “visceral fat”

rats [6] = settings: cited from earlier work
aP2 = assay: RT-PCR analysis of aP2 gene expression in mouse liver tissues; format: in vivo, mice; settings: mRNA by RT-PCR, vs HFD, to levels similar for the ND
Source text: as §5, with “8” for “9”, “lipogenesis” for “inflammation”, “C/EBPα, PPARγ2” for “TNFα”, “aP2,” for “IL-6,”
as §2, with “liver” for “visceral fat”

C/EBPα = assay: RT-PCR analysis of C/EBPα gene expression in mouse liver tissues; format: in vivo, mice; settings: mRNA by RT-PCR, vs HFD, to levels similar for the ND
Source text: as §5, with “8” for “9”, “lipogenesis” for “inflammation”, “C/EBPα, PPARγ2” for “TNFα”, “aP2,” for “IL-6,”
as §2, with “liver” for “visceral fat”

O=Cc1ccc2c(c1)OCO2 [piperonal, 1,3-benzodioxole-5-carboxaldehyde]
HFD-induced decrease in expression of UCP3 gene (UCP3): significantly reversed
lower atherogenic indices as compared to HFD group (C57BL/6J mice [1]): 17%
lower plasma level of free fatty acid as compared to HFD group (C57BL/6J mice [1]): 17%
lower plasma level of total cholesterol as compared to HFD group (C57BL/6J mice [1]): 14%
lower plasma level of triglyceride as compared to HFD group (C57BL/6J mice [1]): 21%
reduction of fasting blood sugar level as compared to HFD (C57BL/6J mice [1]): 27%
lower plasma level of LDL+VLDL cholesterol as compared to HFD group (C57BL/6J mice [1]; total cholesterol minus HDL-cholesterol): 18%
decrease of absolute organ weight of liver as compared to HFD (C57BL/6J mice [2]): 23%
decreased level of cholesterol in liver tissue as compared to HFD (C57BL/6J mice [2]): 39%
decreased level of free fatty acid in liver tissue as compared to HFD (C57BL/6J mice [2]): 27%
decreased level of triglyceride in liver tissue as compared to HFD (C57BL/6J mice [2]): 13%
decreased plasma activity of ALT as compared to HFD group (C57BL/6J mice [2]): 27%
decreased plasma activity of AST as compared to HFD group (C57BL/6J mice [2]): 15%
decrease of body weight gain as compared to HFD (C57BL/6J mice [3]): 19%
reduced weight of epididymal fat-pad as compared to HFD (C57BL/6J mice [3]): 11%
reduced weight of mesenteric fat-pad as compared to HFD (C57BL/6J mice [3]): 20%
reduced weight of perirenal fat-pad as compared to HFD (C57BL/6J mice [3]): 35%
reduced weight of retroperitoneal fat-pad as compared to HFD (C57BL/6J mice [3]): 8%
reduction of total visceral fat weight, POD group vs HFD group (C57BL/6J mice [3]; P<0.001): 15%
daily food intake (C57BL/6J mice [3]; vs HFD): no significant change
HFD-induced decrease in expression of UCP1 gene (UCP1): significantly reversed
HFD-induced elevation in the expression of IL-6 (IL-6): significantly reversed
toxicity in human (human): no toxicity
expression of PPARγ2 gene (PPARγ2): significantly decreased
anxiety of patients during MRI (patients): relief from anxiety
effect in carcinogenesis animal model [4]: cancer inhibitory effect
toxicity in rats (rats [5]): no toxicity
HFD-induced elevation in the expression of TNF-α (TNF-α): significantly reversed
LD50 (rats [6]): more than 2,700 mg/kg
expression of aP2 gene (aP2): significantly decreased
expression of C/EBPα gene (C/EBPα): significantly decreased
